According to patent US5919374A, “Method of disinfecting water with iodine species” (Iosolutions Incorporated, priority 1997, dated 1999):
Read-outs that look alike come from different tables or passages of the source.

Experiments:
[1] = above pH 8, especially in the presence of dissolved iodides; Chang (1); cited from earlier work
viruses = conditions: higher pHs, e.g. 7-10; cited from earlier work
[2] = Concentration of iodine species in water leaving the crystalline iodine generators; assay type: physicochemical; conditions: pH 6-8, flow about 200 ml/minute
Description: Artesian water is fed through inlet conduit 8 past shut-off valve 10 through preconditioner 12 at a flow rate of not less than 2 l. per minute and not more than about 50 l. per minute preferably on average about 10 l. per minute at a pH 6-8, […] Main flow water passes through conduit 14 where some of the main flow is diverted to iodine generator assembly 15 through conduit 16 at a flow rate of about 200 ml/minute. The rest of the main flow flows through flow restrictor disk 20 such that an absolute pressure drop of about 2 psi is generated across flow restrictor disk 20. Flow restrictor 20 governs the rate of flow of diverted main flow which ultimately reaches iodine generator assembly 15. The main flow now proceeds through flow switch 22, such that, at a pre-set flow rate exceeding 2 l per minute, the flow switch 22 generates an electrical impulse which is fed to dual action solenoid valve 24. Such an impulse is continuous and causes solenoid valve 24 to open and remain so, as long as the flow rate is maintained above 2 l per minute. The rest of the main flow continues through conduit 14 uninterrupted until iodine liquor is blended back into the main flow at iodine species liquor injection port 44. […]

[3] = crystalline iodine in water; cited from earlier work
[4] = test system: E. coli fecal streptococci; conditions: cited from earlier work
chickens [5] = conditions: cited from earlier work
bacteria = conditions: pHs 5-7; cited from earlier work
chickens [6] = assay: Safe consumption of residual iodine by chickens
E. coli = conditions: cited from earlier work

Row | Structure (SMILES) | decomposition to iodide and iodate ions [1] | virucidal action (viruses) | concentration of iodine species concentrate ([2]; first iodine generator, about 20° C.) | concentration of resultant (saturated) iodine liquor ([2]; second iodine generator, about 28° C.) | solubility in water versus temperature [3] | % Kill ([4]; Black et al., 1968, 18 C., contact time 1 min, 0.5 ppm I2) | % Kill ([4]; Ellis et al., 1989, 20 C., contact time 30 min, avg. 4 ppm I2) | LD50 (chickens [5]) | antibacterial action (bacteria) | concentration of residual iodine chickens could safely consume (chickens [6]) | % Kill (E. coli) | concentration by which E coli is effectively killed (E. coli)
1 | OI [HOI, hypoiodous acid] | decomposes slowly | efficient virucide |  |  |  |  |  |  |  |  |  | 
2 | II [iodine] |  |  | 200-240 ppm | 280-320 ppm | directly proportional to the temperature of the water | 99.99% | 99.99% | about 625 ppm | exhibits antibacterial action | about 2 ppm | 99.99% | 1-10 ppm
